# Test results from PubChem BioAssay AID602217 (Sanford-Burnham Center for Chemical Genomics, 2012).
# Calls of active or inactive are those of the source.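 Rule for the calls: active = IC50 at or below a set limit; inactive = the rest.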
# System: HL-1 cardiomyocytes, 2-deoxyglucose injury, ATPLite luminescence, 2 h
# Assay: protection of HL-1 cardiomyocytes from 2-deoxyglucose injury, dose response, cell-based, ATPLite luminescence (AID 602217);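 note: cells kept in glucose-free DMEM during the 2-deoxyglucose injury; potency of protection where actives preserve ATP signal against 2-deoxyglucose stress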
row,Compound,IC50
1,CC(C)(C)OC(=O)CNC(=O)c1[nH]cnc1C(=O)NCC(=O)OCc1ccccc1,21.7 µM (inactive)
2,COc1ccc(-c2cc(C(=O)Nc3ccccc3N3CCOCC3)c3ccccc3n2)cc1OC,> 79 µM (inactive)
3,CC(=O)c1ccc(-c2ccc(C(=O)Nc3nc(-c4ccccn4)cs3)o2)cc1,> 79 µM (inactive)
4,COc1cc(CN2C[C@@H](CO)O[C@@H](n3cnc4c(Nc5ccccc5)ncnc43)C2)cc(OC)c1OC,> 79 µM (inactive)
5,COc1ccc(Nc2nc(C(=O)N3CCc4cc(OC)c(OC)cc4C3)cs2)cc1,42 µM (inactive)
6,COc1cc(C(=O)N/N=C/c2ccc(OC(=O)c3ccccc3)c(OC)c2)ccc1O,37.6 µM (inactive)
7,O=C(CNC(=O)c1nc[nH]c1C(=O)NCC(=O)OCc1ccccc1)OCc1ccccc1,> 79 µM (inactive)
8,COc1ccc(-c2cc(-c3nnc(COC(=O)c4ccncc4)o3)c3ccccc3n2)cc1OC,24.7 µM (inactive)
9,COc1ccc(-c2cc(NC=O)c3ncc(-c4ccc(C(C)=O)cc4)n3c2)cn1,22.2 µM (inactive)
10,O=CNc1cc(-c2ccc(C(=O)NC3CC3)cc2)cn2c(-c3ccccc3)cnc12,40.9 µM (inactive)
11,Cc1cccc(NC(=O)c2oc3ccc(S(=O)(=O)N4CCOCC4)cc3c2C)c1C,30.5 µM (inactive)
12,COc1cc(NC(=O)c2cc3nc(-c4ccccc4)cc(-c4ccccc4)n3n2)cc(OC)c1OC,23.9 µM (inactive)
13,COc1cccc(C(=O)Nc2c(C(N)=O)oc3ccccc23)c1,33.6 µM (inactive)
14,Cc1ccc(C)c(NC(=O)C(Sc2nc3ccccc3c(=O)n2CC(C)C)c2ccccc2)c1 (configuration not stated),1.14 µM
15,Cc1nn(-c2ccccc2)c(N2CCCC2)c1/C=N/NC(=O)c1cc(-c2ccccn2)nc2ccccc12,19.5 µM
16,NC(=O)c1nsc(C(=O)N(Cc2ccco2)C(C(=O)NCc2ccccc2)c2ccc(O)cc2)c1N (configuration not stated),32.2 µM (inactive)
17,COc1ccc(-c2csc(NC(=O)c3ccc(OCC(=O)N4CCOCC4)c(OC)c3)n2)cc1OC,> 79 µM (inactive)
18,CCOc1ncccc1C(=O)Nc1cccc(-c2nc3cccnc3s2)c1,> 79 µM (inactive)
19,CCCn1nc(C(=O)Nc2nc(-c3ccccn3)cs2)c2ccccc2c1=O,> 79 µM (inactive)
20,CCCNC(=O)c1ccc(N2CCC3(CC2)CC(c2ccccc2)=NO3)c(NC(=O)c2ccco2)c1,10.3 µM
21,COc1ccc(OC)c(/C=N/NC(=O)c2cc3c(OC)c(OC)ccc3[nH]2)c1,> 79 µM (inactive)
22,COc1ccc(-c2cnc3c(NC=O)cc(-c4cccc(NS(C)(=O)=O)c4)cn23)cc1OC,33.5 µM (inactive)

row,Compound,IC50
1,CC(=O)Nc1ccc(C(=O)N/N=C/c2ccccc2OC(=O)c2ccc(Cl)cc2)cc1,> 79 µM (inactive)
2,CCN1C(=O)/C(=C/c2nc3ccccc3c(=O)[nH]2)c2ccccc21,> 79 µM (inactive)
3,COc1cc(NC(=O)c2cc3ccccc3cc2OC)ccc1NC(=O)c1cccs1,5.85 µM
4,CCOc1ccc(C(C(=O)NC2CCCC2)N(C(=O)c2snc(C(N)=O)c2N)c2cccc(O)c2)cc1 (configuration not stated),13.1 µM
5,CCOc1cc(-c2cc(-c3ccc(N)cc3)nc(N)c2C#N)ccc1O,> 79 µM (inactive)
6,COc1cc(/C=N/NC(=O)NC23CC4CC(CC(C4)C2)C3)ccc1OCC(N)=O,> 79 µM (inactive)
7,CCOc1ccccc1Nc1nnc(SCc2nnc(-c3cc(OC)c(OC)c(OC)c3)o2)s1,14.6 µM
8,c1ccc(-c2nc(-n3ccnc3)nc(-n3ccnc3)n2)cc1,38 µM (inactive)
9,COc1cc(-c2cnc3c(NC=O)cc(-c4cccnc4)cn23)cc(OC)c1OC,7.57 µM
10,Cc1cccc(NC(=O)c2nc[nH]c2C(=O)NCCCCNC(=O)c2[nH]cnc2C(=O)Nc2cccc(C)c2)c1,> 79 µM (inactive)
11,Cc1[nH]c2ccccc2c1/C=N/NC(=O)c1cc(-c2cccs2)[nH]n1,> 79 µM (inactive)
12,CS(=O)(=O)c1ccc(-c2cnc3c(NC=O)cc(-c4ccsc4)cn23)cc1,> 79 µM (inactive)
13,COC(=O)c1ccc(N)c(N=CC2=C(O)CC(C)(C)CC2=O)c1,> 79 µM (inactive)
14,CC1(c2ccccc2)NC(=O)N(CC(=O)Nc2cccc(/C=C/c3ccccn3)c2)C1=O (configuration not stated),> 79 µM (inactive)
15,COc1cccc(-c2cnc3c(NC=O)cc(-c4cccc(NC(C)=O)c4)cn23)c1,17.6 µM
16,COC(=O)c1[nH]c2ccccc2c1NC(=O)CNC1CCCCC1,41 µM (inactive)
17,CC(=O)Nc1ccc(Nc2nc(-c3sc(NC(C)=O)nc3C)cs2)cc1,43.6 µM (inactive)
18,Cc1ccc(-c2csc(N3CCC[C@@H]3C(=O)NCCn3c(-c4ccncc4)nc4ccccc43)n2)cc1,> 79 µM (inactive)
19,COc1ccc(CCNc2nc(-c3cccnc3)nc3ccccc23)cc1OC,55 µM (inactive)
20,Cc1ccc(NC(=O)c2nc[nH]c2C(=O)NCCCNC(=O)c2[nH]cnc2C(=O)Nc2ccc(C)cc2)cc1,> 79 µM (inactive)
21,O=C(COC(=O)c1ccccc1C(=O)OCC(=O)NCCc1c[nH]c2ccccc12)NCCc1c[nH]c2ccccc12,> 79 µM (inactive)
22,COc1ccc(-c2ccc3c(c2)S(=O)(=O)c2cccc(C(=O)N4CCN(c5c(Cl)cncc5Cl)CC4)c2C3=O)cc1OC,13.7 µM

row,Compound,IC50
1,Cc1[nH]c2ccccc2c1/C=N/NC(=O)c1cc(-c2ccccc2)n[nH]1,22.8 µM (inactive)
2,O=C(NCC(=O)N(Cc1cccs1)C(C(=O)NC1CCCCC1)c1ccco1)c1ccco1 (configuration not stated),> 79 µM (inactive)
3,COc1cc(/C=C(\C#N)c2nc3ccc(C)cc3[nH]2)c([N+](=O)[O-])cc1OC,> 79 µM (inactive)
4,O=C(C(=O)N(Cc1ccccc1)Cc1ccccc1)c1c(-c2ccccc2)[nH]c2ccccc12,4.8 µM
5,COc1cccc(-c2cnc3c(NC=O)cc(-c4cc(OC)c(OC)c(OC)c4)cn23)c1,> 79 µM (inactive)
6,O=C1OCCN1C(=O)[C@H]1[C@H](c2ccc([N+](=O)[O-])cc2)C(c2ccc(F)cc2)=NN1c1ccc(Br)cc1,> 79 µM (inactive)
7,COc1cc(OC)cc(C(=O)Nc2ccc(C(=O)Nc3ccccc3OC)cc2)c1,> 79 µM (inactive)
8,O=C(CCCN1C(=O)c2cccc3cccc(c23)C1=O)N1CCN(c2ccccc2O)CC1,27.4 µM (inactive)
9,COc1ccc(-c2csc(NC(=O)CCCc3nc4ccccc4c(=O)[nH]3)n2)cc1OC,> 79 µM (inactive)
10,CCc1nc2ccc(C(=O)Nc3cc(-c4ccccc4)ccc3OC)cn2c1N(C)Cc1nccs1,> 79 µM (inactive)
11,Cc1ccccc1N(C(=O)c1snc(C(N)=O)c1N)C(C(=O)NCc1ccccc1)c1ccc(O)cc1 (configuration not stated),> 79 µM (inactive)
12,CCN(CC(=O)Nc1ccc(OC)cc1)C(=O)c1cc(-c2cccs2)nn1-c1ccccc1,17.6 µM
13,CC(C)OCCCNC(=O)CCC(=O)NNc1nc2ccccc2c2nc(-c3ccccc3)nn12,> 79 µM (inactive)
14,Nc1c(C(=O)N/N=C/c2cccnc2)oc2nc(-c3ccco3)cc(-c3ccco3)c12,> 79 µM (inactive)
15,O=C(N/N=C/c1ccccn1)c1cc(-c2cccc3ccccc23)n[nH]1,2.9 µM
16,COc1cc(-c2cc3nc(NCCc4ccc(S(N)(=O)=O)cc4)ccn3n2)cc(OC)c1OC,48.7 µM (inactive)
17,CC(OC(=O)c1cc(-c2cccnc2)nc2ccccc12)C(=O)Nc1ccc2ccccc2c1 (configuration not stated),> 79 µM (inactive)
18,COc1cc(/C=N/NC(=O)c2ccccc2)ccc1OS(=O)(=O)c1ccccc1,> 79 µM (inactive)
19,CC(=O)c1ccc(-c2cnc3c(NC=O)cc(-c4cccc(NS(C)(=O)=O)c4)cn23)cc1,> 79 µM (inactive)
20,O=C(Nc1ccccc1)c1nc[nH]c1C(=O)NCCCCNC(=O)c1[nH]cnc1C(=O)Nc1ccccc1,6.36 µM
21,COc1ccccc1OP(=O)(Nc1cccnc1)Oc1ccccc1OC,21.2 µM (inactive)
22,Cn1c(=O)c2[nH]c(NN=Cc3cccc(Br)c3)nc2n(C)c1=O,17.9 µM

row,Compound,IC50
1,COc1cc(-c2cc3nc(NCCOc4ccccc4)ccn3n2)cc(OC)c1OC,> 79 µM (inactive)
2,CC(=O)Nc1cc(-c2cccc(NS(C)(=O)=O)c2)cn2c(-c3cccc(C(C)=O)c3)cnc12,36.4 µM (inactive)
3,COc1ccc(-c2cc(-c3nnc(COC(=O)C4CC4)o3)c3ccccc3n2)cc1OC,62.9 µM (inactive)
4,COc1cc(-c2cc(NC(C)=O)c3ncc(-c4ccc(F)cc4)n3c2)cc(OC)c1OC,> 79 µM (inactive)
5,O=C(Nc1cc(S(=O)(=O)N2CCOCC2)ccc1N1CCCCC1)c1cc(-c2ccccn2)nc2ccccc12,21 µM (inactive)
6,O=C(c1cc(=O)[nH]c2ccccc12)N1CCN(S(=O)(=O)c2ccc(Cl)cc2)CC1,58.3 µM (inactive)
7,CCOC(=O)c1c(C)[nH]c(C)c1C(=O)COc1ncnc2cc([N+](=O)[O-])ccc12,> 79 µM (inactive)
8,COc1cc(Nc2nc3ccccc3n3nnnc23)cc(OC)c1OC,> 79 µM (inactive)
9,NC(=O)c1nsc(C(=O)N(c2ccccc2)C(C(=O)NCc2ccc(F)cc2)c2ccc(O)cc2)c1N (configuration not stated),19.8 µM
10,Fc1ccc(-n2cc(-c3ccccc3)c3c(N4CCOCC4)ncnc32)cc1,8.35 µM
11,NC(=O)c1nsc(C(=O)N(c2ccccc2)C(C(=O)NC2CCCC2)c2ccc3ncccc3c2)c1N (configuration not stated),13.2 µM
12,O=C(CN(c1ccc2c(c1)OCCO2)S(=O)(=O)c1ccccc1)Nc1ccc2c(c1)OCO2,> 79 µM (inactive)
13,COc1ccc(N(CC(=O)Nc2cccc(C(C)=O)c2)S(=O)(=O)c2ccc(NC(C)=O)cc2)cc1,> 79 µM (inactive)
14,O=C(CNC(=O)c1[nH]cnc1C(=O)NC(c1ccccc1)c1ccccc1)OCc1ccccc1,> 79 µM (inactive)
15,COc1ccc(-c2ccc3c(c2)S(=O)(=O)c2cccc(C(=O)NC[C@@H]4CCCO4)c2C3=O)cc1OC,> 79 µM (inactive)
16,COc1ccccc1N1CCN(C(=O)c2ccc3nc(-c4ccco4)c(-c4ccco4)nc3c2)CC1,16.4 µM
17,COCCN1Cc2cccc(C(=O)Nc3cccc(-c4nc5ccccc5[nH]4)c3)c2C1=O,8.5 µM
18,CCOC(=O)C1CCN(c2cc3c(cc2NC(=O)c2ccccc2)n(C)c(=O)n3C)CC1,> 79 µM (inactive)
19,O=C(c1ccc(-c2nc3ccccc3s2)o1)N1CCN(c2ccccc2O)CC1,> 79 µM (inactive)
20,COc1ccc(-n2cc(-c3ccccc3)c3c(N4CCOCC4)ncnc32)cc1,4.4 µM
21,NC(=O)c1nsc(C(=O)N(c2ccccc2F)C(C(=O)NCc2ccccc2)c2ccc(O)cc2)c1N (configuration not stated),11 µM
